{"source": "patent US20210220356A1", "about": "“DIHYDROPYRIMIDINE DERIVATIVES AND USES THEREOF IN THE TREATMENT OF HBV INFECTION OR OF HBV-INDUCED DISEASES” (Janssen Sciences Ireland Unlimited Company, priority 2018, published 2021)", "key": {"HBV": {"tested_on": "HBV", "assay": "HBV inhibitory activity in HepG2.2.15 cells (HBV DNA in culture medium by q-PCR)", "format": "cell-based", "details": "HepG2.2.15 cells, 40,000 cells/well, 6 days of compound treatment, HBV DNA in culture medium by q-PCR, highest concentration 10 uM; read-out: EC50", "procedure": "(§1) • HepG2.2.15 (the HepG2.2.15 cell line can be produced by transfection of the HepG2 cell line as described in Sells, Chen, and Acs 1987 (Proc. Natl. Acad. Sci. USA 84: 1005-1009), and the HepG2 cell line is available from ATCC® under number HB-8065™)\n(§2) Seed the cell HepG2.2.15 cells into 96-well plate in 2% FBS culture medium at the density of 40,000 cells/well and 5,000 cells/well for HBV inhibitory activity and cytotoxicity determination, respectively. After seeding, incubate the cell plates at 37° C., 5% CO2 overnight. The next day, medium containing compounds is added to the cell to treat the cells for 6 days with medium refreshed once in the middle of the treatment. 8 dose points with 3 folds dilution of each compound were adopted and the highest concentration of the compounds is 10 uM and 100 uM for HBV inhibitory activity and cytotoxicity determination, respectively.\nThe HBV DAN change in the cell culture medium induced by the compounds is measured by q-PCR method. Briefly, the HBV DNA in the culture medium is extracted using QIAamp 96 DNA Blood Kit according to the manual and then quantified by q-PCR using the primers and probe in the table below.\n(§3) EC50 and CC50 values are calculated by the GRAPHPAD PRISM software."}, "HepG2.2.15 cells": {"tested_on": "HepG2.2.15 cells", "assay": "Cytotoxicity determination in HepG2.2.15 cells (CCK-8)", "format": "cell-based", "details": "HepG2.2.15 cells, 5,000 cells/well, 6 days of compound treatment, CCK-8 absorbance 450 nm, highest concentration 100 uM", "procedure": "as §1, §2\nAfter 6 days of compounds treatment, add 20 μl CCK-8 reagents to each well of cytotoxicity assay plates, incubate the plate at 37° C., 5% CO2 for 2.5 h and measure the absorbance at 450 nm wavelength, at the same time read the absorbance at 630 nm wavelength as reference.\nas §3"}}}
{"smiles": "CCOC(=O)C1=C(C2CCc3nn(CCC(=O)O)cc3C2)NC(c2nccs2)=NC1c1cccc(F)c1Cl", "note": "(single isomer, unassigned) [Compound 40c, 3-(5-(6-(2-Chloro-3-fluorophenyl)-5-(ethoxycarbonyl)-2-(thiazol-2-yl)-3,6-dihydropyrimidin-4-yl)-4,5,6,7-tetrahydro-2H-indazol-2-yl)propanoic acid]", "values": [{"measurement": "EC50", "setting": "HBV", "value": 0.0331, "unit": "µM"}, {"measurement": "CC50", "setting": "HepG2.2.15 cells", "value": 12.5, "unit": "µM"}]}
{"smiles": "COC(=O)C1=C(C2CCc3nn(CCC(=O)O)cc3C2)NC(c2nccs2)=NC1c1ccc(F)cc1Br", "note": "(single isomer, unassigned) [Compound 48b, 3-(5-(6-(2-Bromo-4-fluorophenyl)-5-(methoxycarbonyl)-2-(thiazol-2-yl)-3,6-dihydropyrimidin-4-yl)-4,5,6,7-tetrahydro-2H-indazol-2-yl)propanoic acid]", "values": [{"measurement": "EC50", "setting": "HBV", "value": 0.6, "unit": "µM"}, {"measurement": "CC50", "setting": "HepG2.2.15 cells", "value": 80, "unit": "µM"}]}
{"smiles": "CCOC(=O)C1=C(C2CCc3cn(CCC(=O)O)nc3C2)NC(c2nccs2)=NC1c1ccc(F)c(F)c1Cl", "note": "(single isomer, unassigned) [Compound 61c, 3-(6-(6-(2-Chloro-3,4-difluorophenyl)-5-(ethoxycarbonyl)-2-(thiazol-2-yl)-3,6-dihydropyrimidin-4-yl)-4,5,6,7-tetrahydro-2H-indazol-2-yl)propanoic acid]", "values": [{"measurement": "EC50", "setting": "HBV", "value": 0.125, "unit": "µM"}, {"measurement": "CC50", "setting": "HepG2.2.15 cells", "value": 29, "unit": "µM"}]}
{"smiles": "CCOC(=O)C1=C(C2CCc3nn(CCC(=O)O)cc3C2)NC(c2nccs2)=NC1c1ccc(F)c(F)c1C", "note": "(single isomer, unassigned) [Compound 35c, 3-(5-(6-(3,4-Difluoro-2-methylphenyl)-5-(ethoxycarbonyl)-2-(thiazol-2-yl)-3,6-dihydropyrimidin-4-yl)-4,5,6,7-tetrahydro-2H-indazol-2-yl)propanoic acid]", "values": [{"measurement": "EC50", "setting": "HBV", "value": "< 0.0046", "unit": "µM"}, {"measurement": "CC50", "setting": "HepG2.2.15 cells", "value": 14.4, "unit": "µM"}]}
{"smiles": "CCOC(=O)C1=C(C2CCc3nn(CCC(=O)O)cc3C2)NC(c2nccs2)=NC1c1ccc(F)cc1C", "note": "(single isomer, unassigned) [Compound 38c, 3-(5-(5-(Ethoxycarbonyl)-6-(4-fluoro-2-methylphenyl)-2-(thiazol-2-yl)-3,6-dihydropyrimidin-4-yl)-4,5,6,7-tetrahydro-2H-indazol-2-yl)propanoic acid]", "values": [{"measurement": "EC50", "setting": "HBV", "value": 0.0146, "unit": "µM"}, {"measurement": "CC50", "setting": "HepG2.2.15 cells", "value": 19.6, "unit": "µM"}]}
{"smiles": "COC(=O)C1=C(C2CCc3nc([C@H]4C[C@H](C(=O)O)C4)sc3C2)NC(c2nccs2)=NC1c1ccc(F)c(F)c1Cl", "note": "(single isomer, unassigned) [Compound 68c, (trans)-3-(6-(-6-(2-chloro-3,4-difluorophenyl)-5-(methoxycarbonyl)-2-(thiazol-2-yl)-3,6-dihydropyrimidin-4-yl)-4,5,6,7-tetrahydrobenzo[d]thiazol-2-yl)cyclobutanecarboxylic acid]", "values": [{"measurement": "EC50", "setting": "HBV", "value": 0.00645, "unit": "µM"}, {"measurement": "CC50", "setting": "HepG2.2.15 cells", "value": 3.6, "unit": "µM"}]}
{"smiles": "COC(=O)C1=C(C2CCc3[nH]ncc3C2)NC(c2nccs2)=NC1c1ccc(F)c(F)c1Cl", "note": "(single isomer, unassigned) [Compound 65b, Methyl 4-(2-chloro-3,4-difluorophenyl)-6-(4,5,6,7-tetrahydro-1H-indazol-5-yl)-2-(thiazol-2-yl)-1,4-dihydropyrimidine-5-carboxylate]", "values": [{"measurement": "EC50", "setting": "HBV", "value": 2.67, "unit": "µM"}, {"measurement": "CC50", "setting": "HepG2.2.15 cells", "value": 6.3, "unit": "µM"}]}
{"smiles": "COC(=O)C1=C(C2CCc3nn(CCC(=O)O)cc3C2)NC(c2nccs2)=NC1c1ccc(F)cc1Cl", "note": "(single isomer, unassigned) [Compound 47c, 3-(5-(6-(2-Chloro-4-fluorophenyl)-5-(methoxycarbonyl)-2-(thiazol-2-yl)-3,6-dihydropyrimidin-4-yl)-4,5,6,7-tetrahydro-2H-indazol-2-yl)propanoic acid]", "values": [{"measurement": "EC50", "setting": "HBV", "value": 0.147, "unit": "µM"}, {"measurement": "CC50", "setting": "HepG2.2.15 cells", "value": "> 100", "unit": "µM"}]}
{"smiles": "CCOC(=O)C1=C(C2CCc3nn(CC(C)(C)C(=O)O)cc3C2)NC(c2nccs2)=NC1c1ccc(F)c(F)c1Cl", "note": "(single isomer, unassigned) [Compound 53c, 3-(5-(6-(2-Chloro-3,4-difluorophenyl)-5-(ethoxycarbonyl)-2-(thiazol-2-yl)-3,6-dihydropyrimidin-4-yl)-4,5,6,7-tetrahydro-2H-indazol-2-yl)-2,2-dimethylpropanoic acid]", "values": [{"measurement": "EC50", "setting": "HBV", "value": "< 0.0046", "unit": "µM"}, {"measurement": "CC50", "setting": "HepG2.2.15 cells", "value": 10.9, "unit": "µM"}]}
{"smiles": "COC(=O)C1=C(C2CCc3nc([C@H]4CC[C@H](C(=O)O)CC4)oc3C2)NC(c2nccs2)=NC1c1ccc(F)c(F)c1Cl", "note": "(single isomer, unassigned) [Compound 86d, (trans)-4-(6-(6-(2-chloro-3,4-difluorophenyl)-5-(methoxycarbonyl)-2-(thiazol-2-yl)-3,6-dihydropyrimidin-4-yl)-4,5,6,7-tetrahydrobenzo[d]oxazol-2-yl)cyclohexanecarboxylic acid]", "values": [{"measurement": "EC50", "setting": "HBV", "value": 0.0614, "unit": "µM"}, {"measurement": "CC50", "setting": "HepG2.2.15 cells", "value": 4.3, "unit": "µM"}]}
{"smiles": "COC(=O)C1=C(C2CCc3nn(CCC(=O)O)cc3C2)NC(c2nccs2)=NC1c1ccc(F)cc1Br", "note": "(single isomer, unassigned) [Compound 48d, 3-(5-(6-(2-Bromo-4-fluorophenyl)-5-(methoxycarbonyl)-2-(thiazol-2-yl)-3,6-dihydropyrimidin-4-yl)-4,5,6,7-tetrahydro-2H-indazol-2-yl)propanoic acid]", "values": [{"measurement": "EC50", "setting": "HBV", "value": 0.03, "unit": "µM"}, {"measurement": "CC50", "setting": "HepG2.2.15 cells", "value": 34.3, "unit": "µM"}]}
{"smiles": "CCOC(=O)C1=C(C2Cc3cn(CCC(=O)O)nc3C(C)(C)C2)NC(c2nccs2)=NC1c1ccc(F)c(F)c1Cl", "note": "(centres unmarked) [Compound 55c, 3-(5-(6-(2-chloro-3,4-difluorophenyl)-5-(ethoxycarbonyl)-2-(thiazol-2-yl)-3,6-dihydropyrimidin-4-yl)-7,7-dimethyl-4,5,6,7-tetrahydro-2H-indazol-2-yl)propanoic acid]", "values": [{"measurement": "EC50", "setting": "HBV", "value": 0.0095, "unit": "µM"}, {"measurement": "CC50", "setting": "HepG2.2.15 cells", "value": 7.1, "unit": "µM"}]}
{"smiles": "CCOC(=O)C1=C(C2CCc3nn(CCC(=O)O)cc3C2)NC(c2nccs2)=NC1c1cccc(F)c1Br", "note": "(single isomer, unassigned) [Compound 42d, 3-(5-(6-(2-bromo-3-fluorophenyl)-5-(ethoxycarbonyl)-2-(thiazol-2-yl)-3,6-dihydropyrimidin-4-yl)-4,5,6,7-tetrahydro-2H-indazol-2-yl)propanoic acid]", "values": [{"measurement": "EC50", "setting": "HBV", "value": 0.0242, "unit": "µM"}, {"measurement": "CC50", "setting": "HepG2.2.15 cells", "value": 12.7, "unit": "µM"}]}
{"smiles": "CCOC(=O)C1=C(C2CCc3sc(CCC(=O)O)nc3C2)NC(c2nccs2)=NC1c1ccc(F)c(F)c1Cl", "note": "(single isomer, unassigned) [Compound 59f, 3-(5-(6-(2-Chloro-3,4-difluorophenyl)-5-(ethoxycarbonyl)-2-(thiazol-2-yl)-3,6-dihydropyrimidin-4-yl)-4,5,6,7-tetrahydrobenzo[d]thiazol-2-yl)propanoic acid]", "values": [{"measurement": "EC50", "setting": "HBV", "value": 0.209, "unit": "µM"}, {"measurement": "CC50", "setting": "HepG2.2.15 cells", "value": 5.8, "unit": "µM"}]}
{"smiles": "CCOC(=O)C1=C(C2CCc3nn(C(C)CC(=O)O)cc3C2)NC(c2nccs2)=NC1c1ccc(F)c(F)c1Cl", "note": "(single isomer, unassigned) [Compound 52d, 3-(5-(6-(2-chloro-3,4-difluorophenyl)-5-(ethoxycarbonyl)-2-(thiazol-2-yl)-3,6-dihydropyrimidin-4-yl)-4,5,6,7-tetrahydro-2H-indazol-2-yl)butanoic acid]", "values": [{"measurement": "EC50", "setting": "HBV", "value": 0.0124, "unit": "µM"}, {"measurement": "CC50", "setting": "HepG2.2.15 cells", "value": 10.5, "unit": "µM"}]}
{"smiles": "COC(=O)C1=C(C2CCc3nn(C(C)(C)CC(=O)O)cc3C2)NC(c2nccs2)=NC1c1ccc(F)c(F)c1Cl", "note": "(single isomer, unassigned) [Compound 82c, 3-(5-(-6-(2-chloro-3,4-difluorophenyl)-5-(methoxycarbonyl)-2-(thiazol-2-yl)-3,6-dihydropyrimidin-4-yl)-4,5,6,7-tetrahydro-2H-indazol-2-yl)-3-methylbutanoic acid]", "values": [{"measurement": "EC50", "setting": "HBV", "value": 0.0065, "unit": "µM"}, {"measurement": "CC50", "setting": "HepG2.2.15 cells", "value": 15.1, "unit": "µM"}]}
